pIC50: −log10 of the molar value.
How the values were obtained:
[1] = test system: bacterial cells expressing an adenine DNA methyltransferase; type: cell-based, Caulobacter
Brucella abortus = type: cell-based
dam Methylase (E. coli) = dam Methylase (E. coli) (Escherichia coli, UniProt P0AEE8); type: biochemical; details: 100 µM
[2] = target: dcm Methyltransferase (Hhal) (Haemophilus parahaemolyticus, UniProt P05102); type: biochemical, Hemophilus hemolyticus; details: at 500 μM
[3] = test system: Agrobacterium tumefaciens; type: cell-based; details: read-out: IC50 cell growth inhibition
Helicobacter pylori = type: cell-based; details: read-out: IC50 cell growth inhibition
[4] = test system: Caulobacter crescentus (CB15N); type: cell-based; details: 30° C., growth monitored at 630 nm up to 22 hours; read-out: IC50 (μM) Caulobacter crescentus Cell Growth
Brucella abortus CcrM = type: biochemical
[5] = test system: Bacillus subtilis (ATCC #33234); type: cell-based; details: 37° C., growth monitored up to 7.5 hours; read-out: IC50 (μM) Bacillus Subtilis Cell Growth
Caulobacter cresentus = assay: microbe, parasite or virus in culture; type: cell-based; details: read-out: IC50 cell growth inhibition
Bacillus subtilis = assay: microbe, parasite or virus in culture; type: cell-based; details: read-out: IC50 cell growth inhibition
[6] = test system: adenine DNA methyltransferase; type: biochemical

dam Methylase (E. coli), sequence (P0AEE8 whole entry): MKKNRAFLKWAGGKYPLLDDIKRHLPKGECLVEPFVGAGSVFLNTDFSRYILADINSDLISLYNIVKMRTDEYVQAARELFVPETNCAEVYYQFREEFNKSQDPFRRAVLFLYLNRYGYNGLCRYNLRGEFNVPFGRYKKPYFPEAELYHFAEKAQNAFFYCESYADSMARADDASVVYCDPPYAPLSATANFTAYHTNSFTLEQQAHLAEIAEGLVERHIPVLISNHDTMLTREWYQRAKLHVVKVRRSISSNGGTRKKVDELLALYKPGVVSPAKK
dcm Methyltransferase (Hhal), sequence (P05102 whole entry): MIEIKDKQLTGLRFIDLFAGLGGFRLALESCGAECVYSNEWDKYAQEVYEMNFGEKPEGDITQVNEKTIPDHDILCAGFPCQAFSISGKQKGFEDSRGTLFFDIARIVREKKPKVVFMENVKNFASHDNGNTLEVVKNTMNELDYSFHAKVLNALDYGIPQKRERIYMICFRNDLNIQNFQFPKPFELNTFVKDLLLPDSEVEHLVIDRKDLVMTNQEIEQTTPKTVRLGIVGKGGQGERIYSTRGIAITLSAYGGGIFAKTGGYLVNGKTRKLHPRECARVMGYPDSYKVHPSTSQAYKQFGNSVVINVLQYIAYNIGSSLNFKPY

Molecule	IC50 [4]	% reaction Brucella abortus CcrM Activity (Brucella abortus CcrM)	IC50 [5]	also measured
c1ccc(B(OCCNc2ncnc3[nH]cnc23)c2ccccc2)cc1				concentration found to inhibit cell growth [1]: < 50 µM
6-N-(diphenylborinic ester)-ethyl-9-(2-(2-(2-hydroxyethoxy)ethoxy)ethyl)-adenine [Compound 3d]				effect on cell growth (Brucella abortus): Cell growth inhibited from start; inhibition of dam Methylase (dam Methylase (E. coli)): Complete inhibition; inhibition of dcm Methyltransferase [2]: No inhibition at all
6-N-(diphenylborinic ester)-ethyl-9-(2-(4-morpholinyl)-ethyl)-adenine [Compound 3b]				effect on cell growth (Brucella abortus): Complete cell death after 12 hours; pIC50 [3]: 4.60; inhibition of dam Methylase (dam Methylase (E. coli)): Complete inhibition; inhibition of dcm Methyltransferase [2]: No inhibition at all
6-N-(diphenylborinic ester)-ethyl-9-(3-(N-phthaloyl)-aminopropyl)-adenine [Compound 3c]				effect on cell growth (Brucella abortus): Cell growth inhibited from start; pIC50 [3]: 4.60; inhibition of dam Methylase (dam Methylase (E. coli)): Complete inhibition; inhibition of dcm Methyltransferase [2]: No inhibition at all
6-N-(diphenylborinic ester)-ethyl-9-(ethyl-2-acrylate)-methyl-adenine [Compound 3e]				effect on cell growth (Brucella abortus): Cell growth inhibited from start; inhibition of dam Methylase (dam Methylase (E. coli)): Complete inhibition; inhibition of dcm Methyltransferase [2]: No inhibition at all; pIC50 (Helicobacter pylori): 4.60
6-N-(diphenylborinic ester)-ethyl-adenine [Compound 3a]				effect on cell growth (Brucella abortus): Almost complete cell death after 12 hours; pIC50 [3]: < 4.00; inhibition of dam Methylase (dam Methylase (E. coli)): Complete inhibition; inhibition of dcm Methyltransferase [2]: No inhibition at all
c1ccc(B(Oc2cccc3cccnc23)c2ccccc2)cc1 [(11i), diphenylborinic acid 8-hydroxyquiniline ester]	> 100 µM			
Fc1ccc(B(Oc2cccc3cccnc23)c2ccc(F)cc2)cc1 [(11ii), Di-(4-fluorophenyl)borinic acid 8-hydroxyguinoline ester]	23 µM	61%		
Clc1ccc(B(Oc2cccc3cccnc23)c2ccc(Cl)cc2)cc1 [(11iii), Di-(4-chlorophenyl)borinic acid 8-hydroxyquinoline ester]	16 µM	61%		
Clc1cccc(B(Oc2cccc3cccnc23)c2cccc(Cl)c2)c1 [(11iv), Di-(3-chlorophenyl)borinic acid 8-hydroxyguinoline ester]	10 µM		< 10 µM	
Fc1cc(Cl)ccc1B(Oc1cccc2cccnc12)c1ccc(Cl)cc1F [(11v), Di-(4-chloro-2-fluorophenyl)borinic acid 8-hydroxyquinoline ester]	26 µM		< 10 µM	
c1cnc2c(OB(c3ccc4c(c3)OCO4)c3ccc4c(c3)OCO4)cccc2c1 [(11vi), Di-(3,4-methylenedioxyphenyl)borinic acid 8-hydroxyquinoline ester]	32 µM	42%	28 µM	
COc1ccc(B(Oc2cccc3cccnc23)c2ccc(OC)cc2)cc1 [(11vii), Di-(4-methoxyphenyl)borinic acid 8-hydroxyquinoline ester]	24 µM		20 µM	
c1csc(B(Oc2cccc3cccnc23)c2cccs2)c1 [(11viii), Di-(2-thienyl)borinic acid 8-hydroxyguinoline ester]	> 100 µM	74%	28 µM	
Cc1ccc2cccc(OB(c3ccc(F)cc3)c3ccc(F)cc3)c2n1 [(12ii), Di-(p-fluorophenyl)borinic acid 8-hydroxyquinaldine ester]	56 µM	17%	> 100 µM	
Cc1ccc2cccc(OB(c3ccc(Cl)cc3)c3ccc(Cl)cc3)c2n1 [(12iii), Di-(p-chlorophenyl)borinic acid 8-hydroxyguinaldine ester]	5 µM	40%	24 µM	
COc1ccc(B(Oc2cccc3ccc(C)nc23)c2ccc(OC)cc2)cc1 [(12vii), Di-(4-methoxyphenyl)borinic acid 8-hydroxyquinaldine ester]	24 µM	56%	> 100 µM	

Molecule	IC50 [4]	% reaction Brucella abortus CcrM Activity (Brucella abortus CcrM)	IC50 [5]	also measured
Fc1ccc(B(Oc2ccc(Cl)c3cccnc23)c2ccc(F)cc2)cc1 [(13ii), Di-(p-fluorophenyl)borinic acid 5-chloro-8-hydroxyquinaline ester]	7 µM	55%	27 µM	
Clc1ccc(B(Oc2ccc(Cl)c3cccnc23)c2ccc(Cl)cc2)cc1 [(13iii), Di-(p-chlorophenyl)borinic acid 5-chloro-8-hydroxyquinaline ester]	6 µM	81%	< 10 µM	
Clc1ccc(OB(c2ccc3c(c2)OCO3)c2ccc3c(c2)OCO3)c2ncccc12 [(13vi), Di-(3,4-methylenedioxyphenyl)borinic acid 5-chloro-8-hydroxyquinoline ester]	7 µM		> 100 µM	
COc1ccc(B(Oc2ccc(Cl)c3cccnc23)c2ccc(OC)cc2)cc1 [(13vii), Di-(4-methoxyphenyl)borinic acid 5-chloro-8-hydroxyquinoline ester]	7 µM		36 µM	
O=[N+]([O-])c1ccc(OB(c2ccc3c(c2)OCO3)c2ccc3c(c2)OCO3)c2ncccc12 [(14vi), Di-(3,4-methylenedioxyphenyl)borinic acid 8-hydroxy-5-nitroquinoline ester]	7 µM	21%	> 100 µM	
c1ccc(B(OCc2ccccn2)c2ccccc2)cc1 [(16i), Diphenylborinic acid pyridine-2-methanol]	> 100 µM	93%	> 100 µM	
NCCOB(c1ccc(F)cc1)c1ccc(F)cc1 [(19ii), Di-(4-fluorophenyl)borinic acid ethanolamine ester]	85 µM	8%		
NCCOB(c1ccc(Cl)cc1)c1ccc(Cl)cc1 [(19iii), Di-(4-chlorophenyl)borinic acid ethanolamine ester]	17 µM			
Fc1ccc([B-]2(c3ccc(F)cc3)Oc3cccc4ccc[n+]2c34)cc1 [Compound (1), di-(p-fluorophenyl)borinic acid 8-hydroxyquiniline ester]				pIC50 (Caulobacter cresentus): 4.64; pIC50 (Bacillus subtilis): 5.85
Clc1ccc([B-]2(c3ccc(Cl)cc3)Oc3cccc4ccc[n+]2c34)cc1 [Compound (2), di-(p-chlorophenyl)borinic acid 8-hydroxyquiniline ester]				pIC50 (Caulobacter cresentus): 5.80; pIC50 (Bacillus subtilis): 5.15
c1ccc([B-]2(c3ccccc3)Oc3cccc4ccc[n+]2c34)cc1 [Compound (3), diphenylborinic acid 8-hydroxyquiniline ester]				pIC50 (Caulobacter cresentus): < 4.00
Fc1ccc([B-]2(c3ccc(F)cc3)[NH2+]CCO2)cc1 [Compound (4), di-(p-fluorophenyl)borinic acid ethanolamine ester]				pIC50 (Caulobacter cresentus): 5.07; pIC50 (Bacillus subtilis): 5.47
Clc1ccc([B-]2(c3ccc(Cl)cc3)[NH2+]CCO2)cc1 [Compound (5), di-(p-chlorophenyl)borinic acid ethanolamine ester]				pIC50 (Caulobacter cresentus): 5.77; pIC50 (Bacillus subtilis): 5.49
NCCNc1ncnc2[nH]cnc12 [compound (8)]				inhibitory activity [6]: relatively low (mM range)
Diphenylborinic acid 2-amino-1-phenylpropanol [(17i)]	> 100 µM	114%	> 100 µM	
Diphenylborinic acid (S)-(+)-pyrrolidine-2-methanol [(18i)]	> 100 µM	81%	> 100 µM	

Source: patent US20050227933A1 (priority 2001, published 2005)
